Earlier results in US7338780B2, “Method for producing tripeptides and/or peptides longer than tripeptides” (Ajinomoto Co., Inc., priority 2002, dated 2008).
Residues, ends and D or L forms follow the SMILES beside them.

Compound: C[C@H](N)C(=O)N[C@@H](CCC(N)=O)C(=O)O [L-alanyl-L-glutamine] (H-Ala-Gln-OH)
- water-solubility compared with L-glutamine: higher
